From patent US20230210755A1, “FUNCTIONAL SKIN COATING POLYMER” (The Johns Hopkins University, priority 2020, published 2023)

Assay: Extractables and leachables from UV absorber containing films in synthetic perspiration, quantitative 1H NMR
Assay type: physicochemical
Settings: control: UV filter post-added to extract of Comparative 1 film just prior to concentration (recovery)
Procedure: The films described hereinabove, including the comparative example were further characterized for their ability to retain their UV-filtering components under pseudo-physiological conditions with the potential to extract unbound or otherwise mobile UV-filtering compounds. In general, films were immersed in a gently agitated solution of artificial perspiration for 24 hours at room temperature. Following removal of the films, a small amount of dimethylsulfone was added to each extract solution before it was concentrated to dryness under vacuum (65° C./0 torr). The resulting residues were then taken up in DMSO-d6 and analyzed by quantitative ^1H NMR against the added internal standard (dimethylsulfone). The method was validated by control samples, which were prepared by spiking the extracts derived from silicone films made without UV-filtering compounds, with known amounts of UV-filtering compounds immediately prior to concentration under vacuum.
20-mL screw cap borosilicate vials were charged with 10 g of synthetic perspiration (purchased from Reagents). […] Samples were then analyzed using a Bruker 400 MHz NMR spectrometer. Quantitative determination of the extracted UV filter(s) was then made by comparing the relative integration of distinct resonances derived from the UV filtering compound(s) against that of the internal standard (dimethylsulfone).

CCCCC(CC)COC(=O)C=Cc1ccc(OC)cc1 (stereo not shown) [Octinoxate]
UV filter found by 1H NMR: 98%
